In patent publication US6924302B2, “Substituted triazole diamine derivatives as kinase inhibitors” (Ortho McNeil Pharmaceutical, Inc., priority 2000, dated 2005):

molecular target: T1, CDK2 in complex with cyclin A (Homo sapiens, UniProt P24941); assay: Kinase Selectivity Assay CDK2; type: biochemical; conditions: Table 1
T1 construct: purchased Upstate Biotech
Method in brief: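 Inhibition was measured as reduced ^33P-γ-ATP labelling of a biotinylated peptide substrate immobilized on streptavidin plates after one hour at 30° C.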

Structure (SMILES)	IC50
CNS(=O)(=O)c1ccc(Nc2nc(N)n(C(=O)c3c(F)ccc(C)c3F)n2)cc1 [Cpd 81, 4-[[5-amino-1-(2,6-difluoro-3-methylbenzoyl)-1H-1,2,4-triazol-3-yl]amino]-N-methyl-benzenesulfonamide]	1 nM
CCc1ccc(C(=O)n2nc(Nc3ccc(S(=O)(=O)NCCN(C)C)cc3)nc2N)s1 [Cpd 103, 4-[[5-amino-1-[(5-ethyl-2-thienyl)carbonyl]-1H-1,2,4-triazol-3-yl]amino]-N-[2-(dimethylamino)ethyl]-benzenesulfonamide]	1 nM
Cc1ccsc1C(=O)n1nc(Nc2ccc(S(=O)(=O)NCCN(C)C)cc2)nc1N [Cpd 104, 4-[[5-amino-1-[(3-methyl-2-thienyl)carbonyl]-1H-1,2,4-triazol-3-yl]amino]-N-[2-(dimethylamino)ethyl]-benzenesulfonamide]	1 nM
Cc1cc(C)c(C(=O)n2nc(Nc3ccc(NS(C)(=O)=O)cc3)nc2N)s1 [Cpd 108, N-[4-[[5-amino-1-[(3,5-dimethyl-2-thienyl)carbonyl]-1H-1,2,4-triazol-3-5 yl]amino]phenyl]-methanesulfonamide]	12 nM
Cc1ccsc1C(=O)n1nc(Nc2ccc(N3CCCS3(=O)=O)cc2)nc1N [Cpd 116, N^3-[4-(1,1-dioxido-2-isothiazolidinyl)phenyl]-1-[(3-methyl-2-thienyl)carbonyl]-1H-1,2,4-triazole-3,5-diamine]	1 nM
Nc1nc(Nc2ccc(N3CCCS3(=O)=O)cc2)nn1C(=O)c1c(F)cccc1F [Cpd 117]	7 nM
Nc1nc(Nc2ccc(S(=O)(=O)Nc3ccccn3)cc2)nn1C(=O)c1c(F)cccc1F [Cpd 118, 4-[[5-amino-1-(2,6-difluorobenzoyl)-1H-1,2,4-triazol-3-yl]amino]-N-(2-pyridinyl)-benzenesulfonamide]	21 nM
Cc1cc(C)c(C(=O)n2nc(Nc3ccc(S(=O)(=O)Nc4ccccn4)cc3)nc2N)s1 [Cpd 120]	9 nM
Cc1ccc(F)c(C(=O)n2nc(N)nc2Nc2ccc(S(N)(=O)=O)cc2)c1F [Cpd 123, 4-[[3-amino-1-(2,6-difluoro-3-methylbenzoyl)-1H-1,2,4-triazol-5-yl]amino]-benzenesulfonamide]	31 nM

tested on: SK-OV-3 ovarian adenocarcinoma; assay: Inhibition of Cell Proliferation (14C-thymidine incorporation), SK-OV-3; type: cell-based; conditions: Homo sapiens, SK-OV-3 cell line
Description: (§1) The ability of a test compound to inhibit the proliferation of cell growth was determined by measuring incorporation of ^14C-labelled thymidine into newly synthesized DNA within the cells. […] Cells were trypsinized and counted and 3000-8000 cells were added to each well of a 96-well CytoStar tissue culture treated scintillating microplate (Amersham #RPNQ0160) in complete medium in a volume of 100 μl. Cells were incubated for 24 hours in complete medium at 37° C. in an atmosphere containing 5% CO2. Next, 1 μl of test compound in 100% DMSO was added to the wells of the plate. DMSO only was added to control wells. Cells were incubated for 24 more hours in complete medium at 37° C. in an atmosphere containing 5% CO2. […] The plate was incubated for 24 hours at 37° C. plus 5% CO2 in drug plus ^14C-thymidine. The contents of the plate were discarded into a ^14C radioactive waste container by inverting the plate and the plate was washed twice with 200 μl PBS. 200 μl of PBS is added to each well. […] The degree of methyl ^14C-thymidine incorporation was quantified on a Packard Top Count.

Structure (SMILES)	IC50
Nc1nc(Nc2ccc(S(N)(=O)=O)cc2)nn1C(=O)c1c(F)cccc1F [Cpd 1, 4-[[5-amino-1-(2,6-difluorobenzoyl)-1H-1,2,4-triazol-3-yl]amino]-benzenesulfonamide]	750 nM
Nc1nc(Nc2ccc(S(N)(=O)=O)cc2)nn1C(=O)c1cccs1 [Cpd 14, 4-[[5-amino-1-(2-thienylcarbonyl)-1H-1,2,4-triazol-3-yl]amino]-benzenesulfonamide]	727 nM
Nc1nc(Nc2ccc(S(N)(=O)=O)cc2)nn1C(=O)c1sccc1F [Cpd 16, 4-[[5-amino-1-[(3-fluoro-2-thienyl)carbonyl]-1H-1,2,4-triazol-3-yl]amino]-benzenesulfonamide]	2110 nM
Nc1nc(Nc2ccc(S(N)(=O)=O)cc2)nn1C(=O)c1sccc1Cl [Cpd 17, 4-[[5-amino-1-[(3-chloro-2-thienyl)carbonyl]-1H-1,2,4-triazol-3-yl]amino]-benzenesulfonamide]	3900 nM
Nc1nc(Nc2ccc(S(=O)(=O)N3CCCCC3)cc2)nn1C(=O)c1cccs1 [Cpd 23, N^3-[4-(1-piperidinylsulfonyl)phenyl]-1-(2-thienylcarbonyl)-1H-1,2,4-triazole-3,5-diamine]	1420 nM
Nc1nc(Nc2ccc(S(N)(=O)=O)cc2)nn1C(=O)c1ccsc1 [Cpd 30, 4-[[5-amino-1-(3-thienylcarbonyl)-1H-1,2,4-triazol-3-yl]amino]-benzenesulfonamide]	5750 nM
CNS(=O)(=O)c1ccc(Nc2nc(N)n(C(=O)c3c(F)cccc3F)n2)cc1 [Cpd 80, 4-[[5-amino-1-(2,6-difluorobenzoyl)-1H-1,2,4-triazol-3-yl]amino]-N-methyl-benzenesulfonamide]	16300 nM
CNS(=O)(=O)c1ccc(Nc2nc(N)n(C(=O)c3c(F)ccc(C)c3F)n2)cc1 [Cpd 81, 4-[[5-amino-1-(2,6-difluoro-3-methylbenzoyl)-1H-1,2,4-triazol-3-yl]amino]-N-methyl-benzenesulfonamide]	348 nM
CNS(=O)(=O)c1ccc(Nc2nc(N)n(C(=O)c3sccc3C)n2)cc1 [Cpd 82, 4-[[5-amino-1-[(3-methyl-2-thienyl)carbonyl]-1H-1,2,4-triazol-3-yl]amino]-N-methyl-benzenesulfonamide]	921 nM
CCc1ccc(C(=O)n2nc(Nc3ccc(S(=O)(=O)NC)cc3)nc2N)s1 [Cpd 84, 4-[[5-amino-1-[(5-ethyl-2-thienyl)carbonyl]-1H-1,2,4-triazol-3-yl]amino]-N-methyl-benzenesulfonamide]	461 nM
Cc1ccsc1C(=O)n1nc(Nc2ccc(N3CCNC3=O)cc2)nc1N [Cpd 113, 1-[4-[[5-amino-1-[(3-methyl-2-thienyl)carbonyl]-1H-1,2,4-triazol-3-yl]amino]phenyl]-2-imidazolidinone]	281 nM

tested on: MDA-MB-231; assay: Inhibition of Cell Proliferation (14C-thymidine incorporation), MDA-MB-231; type: cell-based; conditions: Homo sapiens, MDA-MB-231 cell line
Description: as §1

Structure (SMILES)	IC50
Nc1nc(Nc2ccc(S(N)(=O)=O)cc2)nn1C(=O)c1c(F)cccc1F [Cpd 1, 4-[[5-amino-1-(2,6-difluorobenzoyl)-1H-1,2,4-triazol-3-yl]amino]-benzenesulfonamide]	587 nM
Nc1nc(Nc2ccc(S(N)(=O)=O)cc2)nn1C(=O)c1cccs1 [Cpd 14, 4-[[5-amino-1-(2-thienylcarbonyl)-1H-1,2,4-triazol-3-yl]amino]-benzenesulfonamide]	756 nM
Nc1nc(Nc2ccc(S(=O)(=O)N3CCCCC3)cc2)nn1C(=O)c1cccs1 [Cpd 23, N^3-[4-(1-piperidinylsulfonyl)phenyl]-1-(2-thienylcarbonyl)-1H-1,2,4-triazole-3,5-diamine]	868 nM
CCc1ccc(C(=O)n2nc(Nc3ccc(S(N)(=O)=O)cc3)nc2N)s1 [Cpd 32, 4-[[5-amino-1-[(5-ethyl-2-thienyl)carbonyl]-1H-1,2,4-triazol-3-yl]amino]-benzenesulfonamide]	131 nM
Cc1nc(C)c(C(=O)n2nc(Nc3ccc(S(N)(=O)=O)cc3)nc2N)s1 [Cpd 34, 4-[[5-amino-1-[(2,4-dimethyl-5-thiazolyl)carbonyl]-1H-1,2,4-triazol-3-yl]amino]-benzenesulfonamide]	898 nM
Nc1nc(Nc2ccc(S(N)(=O)=O)cc2)nn1C(=O)c1sccc1Br [Cpd 35, 4-[[5-amino-1-[(3-bromo-2-thienyl)carbonyl]-1H-1,2,4-triazol-3-yl]amino]-benzenesulfonamide]	1140 nM
Nc1nc(Nc2ccc(S(N)(=O)=O)cc2)nn1C(=O)C1CCCC1 [Cpd 38, 4-[[5-amino-1-(cyclopentylcarbonyl)-1H-1,2,4-triazol-3-yl]amino]-benzenesulfonamide]	6760 nM
Nc1nc(Nc2ccc(S(N)(=O)=O)cc2)nn1C(=O)C1CCCCC1 [Cpd 39, 4-[[5-amino-1-(cyclohexylcarbonyl)-1H-1,2,4-triazol-3-yl]amino]-benzenesulfonamide]	2910 nM
